{
  "source": "ChEMBL document CHEMBL5465560",
  "about": "“Selectivity Literature for EUbOPEN Chemogenomic Library” (2024)",
  "key": {"[1]": {"experiment": "Selectivity interaction (KinomeScan (DiscoverX)) EUB0001049a CDPK1", "settings": "at 1 µM"}, "[2]": {"biological_target": "T1, Histone-lysine N-methyltransferase NSD3 (Homo sapiens) (UniProt Q9BZ95)", "T1 sequence (whole entry)": "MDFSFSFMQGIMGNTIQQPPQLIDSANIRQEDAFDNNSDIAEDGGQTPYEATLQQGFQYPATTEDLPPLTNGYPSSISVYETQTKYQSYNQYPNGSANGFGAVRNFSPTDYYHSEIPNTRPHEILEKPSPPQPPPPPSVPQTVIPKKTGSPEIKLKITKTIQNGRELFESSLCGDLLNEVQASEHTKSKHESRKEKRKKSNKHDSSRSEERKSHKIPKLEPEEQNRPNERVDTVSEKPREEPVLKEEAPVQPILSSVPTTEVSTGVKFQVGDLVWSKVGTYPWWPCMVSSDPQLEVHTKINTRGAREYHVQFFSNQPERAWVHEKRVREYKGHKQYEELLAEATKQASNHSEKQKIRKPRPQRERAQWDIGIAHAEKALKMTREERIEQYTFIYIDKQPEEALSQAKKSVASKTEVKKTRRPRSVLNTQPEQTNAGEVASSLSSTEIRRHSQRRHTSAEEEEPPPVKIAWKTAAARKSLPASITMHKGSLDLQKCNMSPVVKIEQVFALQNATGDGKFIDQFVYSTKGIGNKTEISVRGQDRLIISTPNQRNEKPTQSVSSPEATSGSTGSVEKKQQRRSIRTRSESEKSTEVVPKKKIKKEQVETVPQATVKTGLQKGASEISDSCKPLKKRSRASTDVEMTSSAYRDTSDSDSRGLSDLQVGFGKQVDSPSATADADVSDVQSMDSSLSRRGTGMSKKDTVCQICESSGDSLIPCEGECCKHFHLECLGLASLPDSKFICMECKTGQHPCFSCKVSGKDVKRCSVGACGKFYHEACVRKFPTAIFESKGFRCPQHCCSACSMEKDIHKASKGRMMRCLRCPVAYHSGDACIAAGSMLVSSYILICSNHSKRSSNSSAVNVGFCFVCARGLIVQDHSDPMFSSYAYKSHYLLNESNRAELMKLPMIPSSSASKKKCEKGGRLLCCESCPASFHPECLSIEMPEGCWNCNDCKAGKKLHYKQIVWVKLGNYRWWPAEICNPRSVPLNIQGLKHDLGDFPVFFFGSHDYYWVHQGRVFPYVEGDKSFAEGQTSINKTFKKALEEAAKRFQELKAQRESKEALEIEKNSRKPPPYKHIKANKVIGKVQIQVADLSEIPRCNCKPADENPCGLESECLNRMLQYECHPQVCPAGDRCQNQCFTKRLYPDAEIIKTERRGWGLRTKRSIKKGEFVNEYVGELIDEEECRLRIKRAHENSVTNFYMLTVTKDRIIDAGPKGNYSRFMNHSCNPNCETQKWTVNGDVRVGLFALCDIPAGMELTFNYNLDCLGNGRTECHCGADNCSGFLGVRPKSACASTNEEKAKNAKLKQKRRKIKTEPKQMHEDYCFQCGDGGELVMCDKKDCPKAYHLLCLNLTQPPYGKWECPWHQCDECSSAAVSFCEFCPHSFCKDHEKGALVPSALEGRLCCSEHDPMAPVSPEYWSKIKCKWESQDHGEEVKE", "settings": "at 1 µM"}, "[3]": {"biological_target": "Insulin receptor-related protein (Homo sapiens) (UniProt P14616)", "sequence (P14616 27-742 limits assumed)": "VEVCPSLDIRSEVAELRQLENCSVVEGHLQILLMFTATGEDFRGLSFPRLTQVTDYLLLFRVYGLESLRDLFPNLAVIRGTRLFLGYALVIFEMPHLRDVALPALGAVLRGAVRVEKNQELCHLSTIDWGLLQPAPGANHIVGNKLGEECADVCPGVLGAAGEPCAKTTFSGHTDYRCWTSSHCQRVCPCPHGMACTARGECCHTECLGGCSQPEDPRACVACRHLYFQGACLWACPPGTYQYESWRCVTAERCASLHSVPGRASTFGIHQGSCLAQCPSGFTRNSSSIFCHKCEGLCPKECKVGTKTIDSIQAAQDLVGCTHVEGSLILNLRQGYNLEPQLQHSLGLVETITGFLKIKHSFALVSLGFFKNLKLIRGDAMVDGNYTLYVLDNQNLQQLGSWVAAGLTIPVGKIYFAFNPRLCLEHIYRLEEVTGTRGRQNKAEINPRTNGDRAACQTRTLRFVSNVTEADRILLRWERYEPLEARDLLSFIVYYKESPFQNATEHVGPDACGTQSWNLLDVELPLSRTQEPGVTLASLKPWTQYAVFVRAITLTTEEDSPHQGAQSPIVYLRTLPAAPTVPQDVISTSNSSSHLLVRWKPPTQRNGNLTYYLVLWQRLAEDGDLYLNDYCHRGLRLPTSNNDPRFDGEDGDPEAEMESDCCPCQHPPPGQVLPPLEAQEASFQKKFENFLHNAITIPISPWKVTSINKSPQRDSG", "sequence (P14616 747-1297 limits assumed)": "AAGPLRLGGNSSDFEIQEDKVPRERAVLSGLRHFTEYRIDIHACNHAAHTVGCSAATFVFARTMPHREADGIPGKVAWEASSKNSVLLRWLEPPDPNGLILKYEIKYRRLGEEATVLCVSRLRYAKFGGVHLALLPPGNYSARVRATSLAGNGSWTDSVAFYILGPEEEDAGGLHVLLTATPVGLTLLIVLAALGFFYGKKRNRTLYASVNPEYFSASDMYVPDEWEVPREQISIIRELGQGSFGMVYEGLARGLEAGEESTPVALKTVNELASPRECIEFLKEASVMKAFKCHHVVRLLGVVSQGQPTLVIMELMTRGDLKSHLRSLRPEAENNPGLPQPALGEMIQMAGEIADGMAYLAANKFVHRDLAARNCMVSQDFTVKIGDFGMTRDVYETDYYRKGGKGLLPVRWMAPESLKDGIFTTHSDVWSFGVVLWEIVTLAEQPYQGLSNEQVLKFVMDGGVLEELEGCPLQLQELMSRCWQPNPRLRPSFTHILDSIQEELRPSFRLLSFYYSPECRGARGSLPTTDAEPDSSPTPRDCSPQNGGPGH", "experiment": "Selectivity interaction (KinomeScan (DiscoverX)) EUB0000229b INSRR", "settings": "at 10 µM"}, "[4]": {"biological_target": "T2, Mitogen-activated protein kinase kinase kinase 15 (Homo sapiens) (UniProt Q6ZN16)", "T2 sequence (whole entry)": "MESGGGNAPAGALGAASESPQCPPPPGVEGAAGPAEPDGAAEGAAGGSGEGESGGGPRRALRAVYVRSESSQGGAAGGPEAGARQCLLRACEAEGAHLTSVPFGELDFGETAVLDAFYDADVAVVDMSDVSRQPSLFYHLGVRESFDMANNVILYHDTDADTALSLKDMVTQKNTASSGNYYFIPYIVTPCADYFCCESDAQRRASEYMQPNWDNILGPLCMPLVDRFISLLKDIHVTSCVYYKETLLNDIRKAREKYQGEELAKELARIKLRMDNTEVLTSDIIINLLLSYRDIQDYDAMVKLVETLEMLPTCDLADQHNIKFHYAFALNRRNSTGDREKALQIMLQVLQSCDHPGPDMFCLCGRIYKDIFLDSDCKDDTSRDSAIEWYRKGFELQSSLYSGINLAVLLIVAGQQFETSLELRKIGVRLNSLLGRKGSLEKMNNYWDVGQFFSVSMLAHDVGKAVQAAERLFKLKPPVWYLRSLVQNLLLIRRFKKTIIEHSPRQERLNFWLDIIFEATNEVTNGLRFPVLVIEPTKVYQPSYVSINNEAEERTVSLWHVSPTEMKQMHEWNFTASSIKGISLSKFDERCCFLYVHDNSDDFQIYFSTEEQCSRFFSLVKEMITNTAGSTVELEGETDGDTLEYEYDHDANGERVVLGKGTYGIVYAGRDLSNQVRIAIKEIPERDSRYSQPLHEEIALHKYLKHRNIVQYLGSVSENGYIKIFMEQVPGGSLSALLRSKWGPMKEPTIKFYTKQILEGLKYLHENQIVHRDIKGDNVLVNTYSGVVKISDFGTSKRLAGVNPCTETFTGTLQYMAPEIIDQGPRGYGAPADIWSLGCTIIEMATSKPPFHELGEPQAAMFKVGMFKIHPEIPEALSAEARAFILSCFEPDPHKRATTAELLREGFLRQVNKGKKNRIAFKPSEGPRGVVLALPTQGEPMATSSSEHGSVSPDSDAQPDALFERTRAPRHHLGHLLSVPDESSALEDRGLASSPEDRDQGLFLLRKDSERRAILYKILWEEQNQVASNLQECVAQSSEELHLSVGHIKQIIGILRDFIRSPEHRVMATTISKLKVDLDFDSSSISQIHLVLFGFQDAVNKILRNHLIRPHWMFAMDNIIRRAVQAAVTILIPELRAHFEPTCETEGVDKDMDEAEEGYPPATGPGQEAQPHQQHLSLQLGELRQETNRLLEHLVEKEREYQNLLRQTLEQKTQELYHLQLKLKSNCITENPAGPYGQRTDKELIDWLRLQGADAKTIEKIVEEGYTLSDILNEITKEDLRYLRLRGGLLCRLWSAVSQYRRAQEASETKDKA", "experiment": "Selectivity interaction (Kinase panel (KiNativ target engagement assay in Jurkat cells)) EUB0001635a MAP3K15", "type": "cell-based", "settings": "at 1 µM"}},
  "data": [
    {"smiles": "COc1cc(Nc2nc(C)cc(-c3cnn4nc(OC)ccc34)n2)cc(C(F)(F)F)c1", "values": [
      {"measurement": "% of control", "setting": "[1]", "value": 74, "unit": "%"}
    ]},
    {"smiles": "CNCCN1CCC(c2cc(CN(C)C(=O)c3cccc(Oc4ccccc4)c3)ccn2)CC1", "values": [
      {"measurement": "% activity", "setting": "[2]", "value": "> 90", "unit": "%"}
    ]},
    {"smiles": "COc1cc(N(C)c2ccnc3ccc(C(F)(F)F)cc23)cc(OC)c1OC", "values": [
      {"measurement": "% binding", "setting": "[3]", "value": 76, "unit": "%"}
    ]},
    {"smiles": "C=CC(=O)Nc1ccc(C(=O)Nc2[nH]nc3c2CN(C(=O)N[C@H](CN(C)C)c2ccccc2)C3(C)C)cc1", "values": [
      {"measurement": "% of engagement", "setting": "[4]", "value": 4.9, "unit": "%"}
    ]}
  ]
}
